Results: ChEMBL document CHEMBL1201862, “PubChem BioAssay data set” (2004)
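Five compound concentrations were applied to cells in 96-well plates for 48 hours; endpoints were derived by simple linear interpolation of the resulting dose-response curve. GI50 marks 50% less growth.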 Activity calls are given as the source filed them. Rule as the data show it: active = GI50 up to about 1.1 µM and inactive = higher.

Columns and labels:
Assay in all cases: NCI tumour cell line growth inhibition, 48 h
NCI/ADR-RES = system: NCI/ADR-RES
MDA-MB-435 = system: MDA-MB-435
LOX IMVI = system: LOX IMVI
TK-10 = system: TK-10
IGROV-1 = system: IGROV-1
SW-620 = system: SW-620
ACHN = system: ACHN
CAKI-1 = system: CAKI-1
CCRF-CEM = system: CCRF-CEM
MOLT-4 = system: MOLT-4
A549 = system: A549
SK-OV-3 = system: SK-OV-3
UO-31 = system: UO-31
HCT-15 = system: HCT-15
OVCAR-8 = system: OVCAR-8
SK-MEL-28 = system: SK-MEL-28
786-0 = system: 786-0
SR = system: SR
OVCAR-4 = system: OVCAR-4
HCT-116 = system: HCT-116

Row | Structure (SMILES) | GI50 (NCI/ADR-RES) | GI50 (MDA-MB-435) | GI50 (LOX IMVI) | GI50 (TK-10) | GI50 (IGROV-1) | GI50 (SW-620) | GI50 (ACHN) | GI50 (CAKI-1) | GI50 (CCRF-CEM) | GI50 (MOLT-4) | GI50 (A549) | GI50 (SK-OV-3) | GI50 (UO-31) | GI50 (HCT-15) | GI50 (OVCAR-8) | GI50 (SK-MEL-28) | GI50 (786-0) | GI50 (SR) | GI50 (OVCAR-4) | GI50 (HCT-116)
1 | O=C1CCC(c2ccccc2)(c2ccccc2)CC1 | 40 µM (inactive) | > 100 µM (inactive) | > 100 µM (inactive) | 85.9 µM (inactive) | > 100 µM (inactive) | 82.2 µM (inactive) | > 100 µM (inactive) | > 100 µM (inactive) | 19.8 µM (inactive) | 30.6 µM (inactive) | 49.4 µM (inactive) | > 100 µM (inactive) | 65 µM (inactive) | 47.4 µM | > 100 µM (inactive) | > 100 µM (inactive) | > 100 µM (inactive) | 37.8 µM (inactive) | > 100 µM (inactive) | 41.3 µM (inactive)
2 | Nc1ncnc2c1ccn2C1OC2COP(=O)(O)OC2C1O (centres undefined) | 0.565 µM (active) | 0.273 µM (active) | 0.0735 µM (active) | 0.25 µM (active) | 0.488 µM (active) | 0.261 µM (active) | 0.0412 µM (active) | 0.0904 µM (active) | 0.773 µM (active) | 0.681 µM (active) | 0.365 µM (active) | 0.197 µM (active) | 0.196 µM (active) | 0.152 µM | 0.0773 µM (active) | 0.515 µM (active) | 0.281 µM (active) | 0.173 µM (active) | 0.174 µM (active) | 0.17 µM (active)
3 | Cn1c2c(c3c(=O)[nH]ncc31)CCc1ccccc1-2 | 27.4 µM (inactive) | 32.1 µM (inactive) | 17.6 µM (inactive) | 17.7 µM (inactive) | 19 µM (inactive) | 34.1 µM (inactive) | 25.4 µM (inactive) | 32.1 µM (inactive) | 20.8 µM (inactive) | 21.8 µM (inactive) | 29.1 µM (inactive) | 61.1 µM (inactive) | 22.5 µM (inactive) | 24.8 µM | 57.3 µM (inactive) | 26.7 µM (inactive) | 25.4 µM (inactive) | 20.5 µM (inactive) | 44.7 µM (inactive) | 20.1 µM (inactive)
4 | O=C1CSC(c2ccc(Cl)cc2)N1c1ccc(-n2c(-c3ccccc3)nc3ccccc3c2=O)cc1 (centres undefined) | 23.8 µM (inactive) | 56 µM (inactive) | 50.8 µM (inactive) | > 100 µM (inactive) | 31.9 µM (inactive) | 76 µM (inactive) | > 100 µM (inactive) | > 100 µM (inactive) | 45.7 µM (inactive) | 21.2 µM (inactive) | 60.8 µM (inactive) | > 100 µM (inactive) | 5.48 µM (inactive) | 20.4 µM | > 100 µM (inactive) | > 100 µM (inactive) | 87.1 µM (inactive) | 77.4 µM (inactive) | 12.9 µM (inactive) | 34.3 µM (inactive)
5 | CC(=O)OC1[C@@H](OC(C)=O)CN(OCc2ccccc2)C[C@H]1OC(C)=O (some centres undefined) | > 100 µM (inactive) | > 100 µM (inactive) | > 100 µM (inactive) | > 100 µM (inactive) | > 100 µM (inactive) | > 100 µM (inactive) | > 100 µM (inactive) | > 100 µM (inactive) | > 100 µM (inactive) | > 100 µM (inactive) | > 100 µM (inactive) | 33 µM (inactive) | > 100 µM (inactive) | > 100 µM | > 100 µM (inactive) | > 100 µM (inactive) | > 100 µM (inactive) | > 100 µM (inactive) | > 100 µM (inactive) | > 100 µM (inactive)
6 | Cn1c2ccccc2c(=NNc2ccc(C(=O)O)cc2)c2ccccc21 | 23.9 µM (inactive) | 19 µM (inactive) | 10.6 µM (inactive) | 21.3 µM (inactive) | 20.1 µM (inactive) | 16.1 µM (inactive) | 15.3 µM (inactive) | 21.6 µM (inactive) | 15.2 µM (inactive) | 11.3 µM (inactive) | 14.4 µM (inactive) | 17.3 µM (inactive) | 15.1 µM (inactive) | 18.8 µM | 14.8 µM (inactive) | 26 µM (inactive) | 19.8 µM (inactive) | 13.8 µM (inactive) | 12.9 µM (inactive) | 7.5 µM (inactive)
7 | O=C1CN(C(=O)C2CCCN2C(=O)C2CCCN2)C(=O)CN1 (centres undefined) | > 100 µM (inactive) | 36.8 µM (inactive) | > 100 µM (inactive) | > 100 µM (inactive) | > 100 µM (inactive) | > 100 µM (inactive) | > 100 µM (inactive) | > 100 µM (inactive) | > 100 µM (inactive) | > 100 µM (inactive) | > 100 µM (inactive) | > 100 µM (inactive) | > 100 µM (inactive) | > 100 µM | > 100 µM (inactive) | > 100 µM (inactive) | > 100 µM (inactive) | > 100 µM (inactive) | > 100 µM (inactive) | > 100 µM (inactive)
8 | O=c1c2ncn(C3CC(O)C(CO)O3)c2nnn1Cc1ccccc1[N+](=O)[O-] (centres undefined) | > 100 µM (inactive) | > 100 µM (inactive) | > 100 µM (inactive) | > 100 µM (inactive) | > 100 µM (inactive) | > 100 µM (inactive) | > 100 µM (inactive) | > 100 µM (inactive) | > 100 µM (inactive) | 29.4 µM (inactive) | > 100 µM (inactive) | > 100 µM (inactive) | > 100 µM (inactive) | > 100 µM | > 100 µM (inactive) | > 100 µM (inactive) | > 100 µM (inactive) | 3.13 µM (inactive) | > 100 µM (inactive) | > 100 µM (inactive)
9 | C=C(CN(C)C)C(=O)c1ccc(C)cc1C | 7 µM (inactive) | 5.94 µM (inactive) | 5.12 µM (inactive) | 8.73 µM (inactive) | 7.23 µM (inactive) | 2.74 µM (inactive) | 7.73 µM (inactive) | 3.09 µM (inactive) | 0.574 µM (active) | 1.01 µM (active) | 32.2 µM (inactive) | 18.5 µM (inactive) | 12.2 µM (inactive) | 4.52 µM | 12.9 µM (inactive) | 6.1 µM (inactive) | 5.19 µM (inactive) | 1.25 µM (inactive) | 9.86 µM (inactive) | 5.61 µM (inactive)
10 | CCOC(=O)Cn1nc2ccc(Nc3nc4ccccc4nc3C(=O)OCC)cc2n1 | 54.6 µM (inactive) | > 100 µM (inactive) | > 100 µM (inactive) | 38.4 µM (inactive) | 69.7 µM (inactive) | > 100 µM (inactive) | > 100 µM (inactive) | > 100 µM (inactive) | > 100 µM (inactive) | > 100 µM (inactive) | > 100 µM (inactive) | 49.3 µM (inactive) | 20.8 µM (inactive) | > 100 µM | 58.2 µM (inactive) | > 100 µM (inactive) | 33.4 µM (inactive) | > 100 µM (inactive) | 42.8 µM (inactive) | 55 µM (inactive)
11 | O=C1C2C(c3ccccc3)NC(c3ccccc3)C1C(c1ccccc1)NC2c1ccccc1 (centres undefined) | > 100 µM (inactive) | > 100 µM (inactive) | > 100 µM (inactive) | > 100 µM (inactive) | > 100 µM (inactive) | > 100 µM (inactive) | > 100 µM (inactive) | > 100 µM (inactive) | > 100 µM (inactive) | > 100 µM (inactive) | > 100 µM (inactive) | > 100 µM (inactive) | > 100 µM (inactive) | > 100 µM | > 100 µM (inactive) | > 100 µM (inactive) | > 100 µM (inactive) | > 100 µM (inactive) | > 100 µM (inactive) | > 100 µM (inactive)
12 | O=C(NC1(c2cc3ccccc3s2)CCCCC1)C1CCC1 | > 100 µM (inactive) | > 100 µM (inactive) | > 100 µM (inactive) | > 100 µM (inactive) | > 100 µM (inactive) | > 100 µM (inactive) | > 100 µM (inactive) | > 100 µM (inactive) | > 100 µM (inactive) | > 100 µM (inactive) | > 100 µM (inactive) | > 100 µM (inactive) | > 100 µM (inactive) | > 100 µM | 66.4 µM (inactive) | 66.8 µM (inactive) | > 100 µM (inactive) | > 100 µM (inactive) | 97.5 µM (inactive) | > 100 µM (inactive)
13 | C/C(=N\NC(=S)N1CCCCCC1)c1ccccn1 | 0.01 µM (active) | 0.601 µM (active) | 0.0656 µM (active) | 0.573 µM (active) | 0.00162 µM (active) | 0.0148 µM (active) | 0.00405 µM (active) | 0.0162 µM (active) | 0.00383 µM (active) | 0.00676 µM (active) | 0.0271 µM (active) | 0.00665 µM (active) | 0.543 µM (active) | – | 0.00383 µM (active) | 1.18 µM (inactive) | 0.0352 µM (active) | 0.00392 µM (active) | 0.185 µM (active) | 0.00207 µM (active)
14 | CC(C)C(C/C=C1\CC(CO)(COC(=O)C2CCCCC2)OC1=O)C(C)C (centres undefined) | 20.7 µM (inactive) | 44.8 µM (inactive) | 15.7 µM (inactive) | 21 µM (inactive) | 22.9 µM (inactive) | 21.3 µM (inactive) | 16 µM (inactive) | 18.7 µM (inactive) | 16.9 µM (inactive) | 6.87 µM (inactive) | 16.8 µM (inactive) | > 100 µM (inactive) | 17.4 µM (inactive) | 21.7 µM | 18.7 µM (inactive) | 16.6 µM (inactive) | 13.7 µM (inactive) | 27 µM (inactive) | 18 µM (inactive) | 19.2 µM (inactive)
